The text below walks through data of patent US9334290B2, “Substituted tetrahydrocarbazole and carbazole carboxamide compounds” (Bristol-Myers Squibb Company, priority 2013, dated 2016).

The IC50 is the midpoint of a concentration-inhibition curve.

Structures are written as SMILES.

Jak2 tyrosine kinase, sequence (O60674 whole entry): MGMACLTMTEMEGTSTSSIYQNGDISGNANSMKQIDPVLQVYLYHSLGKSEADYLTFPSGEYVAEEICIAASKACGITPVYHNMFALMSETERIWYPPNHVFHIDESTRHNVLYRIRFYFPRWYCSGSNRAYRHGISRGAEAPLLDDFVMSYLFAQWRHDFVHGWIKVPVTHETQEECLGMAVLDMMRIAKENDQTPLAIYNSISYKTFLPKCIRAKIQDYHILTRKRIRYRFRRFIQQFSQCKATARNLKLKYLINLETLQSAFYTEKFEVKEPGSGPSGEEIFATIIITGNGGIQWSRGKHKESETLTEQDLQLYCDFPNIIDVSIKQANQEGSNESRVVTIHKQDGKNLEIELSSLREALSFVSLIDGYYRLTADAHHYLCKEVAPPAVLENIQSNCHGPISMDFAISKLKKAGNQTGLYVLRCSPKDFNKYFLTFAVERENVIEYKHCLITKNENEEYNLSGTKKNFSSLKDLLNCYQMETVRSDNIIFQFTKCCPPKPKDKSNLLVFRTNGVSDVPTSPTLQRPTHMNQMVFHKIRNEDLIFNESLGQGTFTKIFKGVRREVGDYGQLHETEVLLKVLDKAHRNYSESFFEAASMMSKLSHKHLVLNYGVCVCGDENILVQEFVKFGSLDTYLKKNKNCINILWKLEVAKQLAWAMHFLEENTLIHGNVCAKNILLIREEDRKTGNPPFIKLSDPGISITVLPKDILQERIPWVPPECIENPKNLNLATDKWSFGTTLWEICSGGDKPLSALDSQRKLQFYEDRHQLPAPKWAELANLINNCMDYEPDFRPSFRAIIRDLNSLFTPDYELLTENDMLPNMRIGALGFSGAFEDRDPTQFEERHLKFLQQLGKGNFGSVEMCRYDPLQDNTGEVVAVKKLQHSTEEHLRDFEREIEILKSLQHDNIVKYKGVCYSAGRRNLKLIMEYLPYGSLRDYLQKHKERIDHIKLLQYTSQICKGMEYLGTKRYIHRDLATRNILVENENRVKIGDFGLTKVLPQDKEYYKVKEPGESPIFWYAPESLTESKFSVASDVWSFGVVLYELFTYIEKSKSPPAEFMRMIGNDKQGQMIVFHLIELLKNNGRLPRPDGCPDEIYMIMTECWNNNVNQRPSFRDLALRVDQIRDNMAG

One assay concerns the target Jak2 tyrosine kinase (Homo sapiens (Human), UniProt O60674). In words: Jak2 tyrosine kinase assay. It is filed as biochemical.
Settings: not given
The compound `Cc1c(-c2c(F)cc(C(N)=O)c3[nH]c4c(c23)CC[C@H](C(C)(C)O)C4)cccc1-n1c(=O)cc2c(Cl)cccn2c1=O` (single isomer, unassigned) [Example 64] displayed an IC50 of more than 2000 nM.
`Cc1c(-c2c(Cl)cc(C(N)=O)c3[nH]c4c(c23)CC[C@H](C(C)(C)O)C4)cccc1-n1c(=O)c2cccc(F)c2n(C)c1=O` [Example 25, 6-Chloro-5-(3-(8-fluoro-1-methyl-2,4-dioxo-1,2-dihydroquinazolin-3(4H)-yl)-2-methylphenyl)-2-(S)-(2-hydroxypropan-2-yl)-2,3,4,9-tetrahydro-1H-carbazole-8-carboxamide] showed an IC50 of more than 2000 nM.
`[2H]C([2H])([2H])n1c(=O)n(-c2cccc(-c3c(F)cc(C(N)=O)c4[nH]c5cc(C(C)(C)O)ccc5c34)c2C)c(=O)c2cccc(F)c21` [Example 52] displayed an IC50 of 1100 nM.

A further assay relates to CD69 expression on B cells in human whole blood. Briefly: Whole blood assay of BCR-stimulated CD69 expression on B cells. Format: cell-based. The following applies: BCR-stimulated, read-out: CD69 IC50 values.
Turning to `Cc1c(-c2c(F)cc(C(N)=O)c3[nH]c4cc(C(C)(C)O)ccc4c23)cccc1-n1c(=O)c2cccc(F)c2n(C)c1=O` (atropisomer, axis not shown) [Example 18, 3-Fluoro-4-(3-(S)-(8-fluoro-1-methyl-2,4-dioxo-1,2-dihydroquinazolin-3(4H)-yl)-2-methylphenyl)-7-(2-hydroxypropan-2-yl)-9H-carbazole-1-carboxamide], the IC50 was determined as 56 nM.
On the same count and under the same terms, to `Cc1c(-c2c(Cl)cc(C(N)=O)c3[nH]c4cc(C(C)(C)O)ccc4c23)cccc1-n1c(=O)c2cccc(F)c2n(C)c1=O` (single isomer, unassigned) [Example 1] belongs 190 nM; to `Cc1c(-c2c(Cl)cc(C(N)=O)c3[nH]c4cc(C(C)(C)O)ccc4c23)cccc1-n1c(=O)c2cccc(F)c2n(C)c1=O` (single isomer, unassigned) [Example 2], 90 nM; to `Cc1c(-c2c(F)cc(C(N)=O)c3[nH]c4cc(C(C)(C)O)ccc4c23)cccc1-n1c(=O)c2cccc(F)c2n(C)c1=O` [Example 17, 3-Fluoro-4-(3-(8-fluoro-1-methyl-2,4-dioxo-1,2-dihydroquinazolin-3(4H)-yl)-2-methylphenyl)-7-(2-hydroxypropan-2-yl)-9H-carbazole-1-carboxamide], 120 nM.
Take `Cc1c(-c2c(F)cc(C(N)=O)c3[nH]c4cc(C(C)(C)O)ccc4c23)cccc1-n1c(=O)[nH]c2c(F)cccc2c1=O` [Example 20, 3-Fluoro-4-(3-(8-fluoro-2,4-dioxo-1,2-dihydroquinazolin-3(4H)-yl)-2-methylphenyl)-7-(2-hydroxypropan-2-yl)-9H-carbazole-1-carboxamide]: the IC50 is 16 nM.
As to `Cc1c(-c2c(F)cc(C(N)=O)c3[nH]c4cc(C(C)(C)O)ccc4c23)cccc1-n1c(=O)[nH]c2c(F)cccc2c1=O` [Example 21, 3-Fluoro-4-(R)-(3-(R)-(8-fluoro-2,4-dioxo-1,2-dihydroquinazolin-3(4H)-yl)-2-methylphenyl)-7-(2-hydroxypropan-2-yl)-9H-carbazole-1-carboxamide], the IC50 turned out to be 17 nM.
For `Cc1c(-c2c(F)cc(C(N)=O)c3[nH]c4cc(C(C)(C)O)ccc4c23)cccc1-n1c(=O)[nH]c2c(F)cccc2c1=O` [Example 22, 3-Fluoro-4-(R)-(3-(S)-(8-fluoro-2,4-dioxo-1,2-dihydroquinazolin-3(4H)-yl)-2-methylphenyl)-7-(2-hydroxypropan-2-yl)-9H-carbazole-1-carboxamide], the IC50 is 120 nM.
With `Cc1c(-c2c(Cl)cc(C(N)=O)c3[nH]c4cc(C(C)(C)O)ccc4c23)cccc1-n1c(=O)ccn(-c2ccc(F)cc2)c1=O` [Example 23, 3-Chloro-4-(3-(3-(4-fluorophenyl)-2,6-dioxo-2,3-dihydropyrimidin-1(6H)-yl)-2-methylphenyl)-7-(2-hydroxypropan-2-yl)-9H-carbazole-1-carboxamide], the IC50 stood at 98 nM.
Turning to `Cc1c(-c2c(Cl)cc(C(N)=O)c3[nH]c4cc(C(C)(C)O)ccc4c23)cccc1-n1c(=O)ccn(-c2ccc(F)cc2)c1=O` [Example 24, 3-Chloro-4-(R)-(3-(3-(4-fluorophenyl)-2,6-dioxo-2,3-dihydropyrimidin-1(6H)-yl)-2-methylphenyl)-7-(2-hydroxypropan-2-yl)-9H-carbazole-1-carboxamide], the IC50 was determined as 21 nM.
The same measure, in the same setting: to `Cc1c(-c2c(Cl)cc(C(N)=O)c3[nH]c4cc(C(C)(C)O)ccc4c23)cccc1-n1c(=O)cc2c(Cl)cccn2c1=O` [Example 32, 3-Chloro-4-(R)-(3-(R)-(5-chloro-1,3-dioxo-1H-pyrido[1,2-c]pyrimidin-2(3H)-yl)-2-methylphenyl)-7-(2-hydroxypropan-2-yl)-9H-carbazole-1-carboxamide] belongs 160 nM.
In the case of `Cc1c(-c2c(Cl)cc(C(N)=O)c3[nH]c4cc(C(C)(C)O)ccc4c23)cccc1-n1c(=O)cc2c(Cl)cccn2c1=O` [Example 33, 3-Chloro-4-(R)-(3-(S)-(5-chloro-1,3-dioxo-1H-pyrido[1,2-c]pyrimidin-2(3H)-yl)-2-methylphenyl)-7-(2-hydroxypropan-2-yl)-9H-carbazole-1-carboxamide], the IC50 stood at 24 nM.
Consider `Cn1c(=O)n(-c2cccc(-c3c(Cl)cc(C(N)=O)c4[nH]c5cc(C(C)(C)O)ccc5c34)c2Cl)c(=O)c2ccccc21` [Example 42, 3-Chloro-4-(2-chloro-3-(1-methyl-2,4-dioxo-1,2-dihydroquinazolin-3(4H)-yl)phenyl)-7-(2-hydroxypropan-2-yl)-9H-carbazole-1-carboxamide], for which the half-inhibitory concentration (IC50) is 210 nM.
In the case of `Cn1c(=O)n(-c2cccc(-c3c(Cl)cc(C(N)=O)c4[nH]c5cc(C(C)(C)O)ccc5c34)c2Cl)c(=O)c2ccccc21` [Example 43, 3-Chloro-4-(R)-(2-chloro-3-(1-methyl-2,4-dioxo-1,2-dihydroquinazolin-3(4H)-yl)phenyl)-7-(2-hydroxypropan-2-yl)-9H-carbazole-1-carboxamide], the IC50 is 71 nM.
Still for that read-out and setting: under `Cn1c(=O)n(-c2cccc(-c3c(Cl)cc(C(N)=O)c4[nH]c5cc(C(C)(C)O)ccc5c34)c2Cl)c(=O)c2cccc(F)c21` [Example 44, 3-Chloro-4-(2-chloro-3-(8-fluoro-1-methyl-2,4-dioxo-1,2-dihydroquinazolin-3(4H)-yl)phenyl)-7-(2-hydroxypropan-2-yl)-9H-carbazole-1-carboxamide] stands 160 nM.
For the compound `Cn1c(=O)n(-c2cccc(-c3c(Cl)cc(C(N)=O)c4[nH]c5cc(C(C)(C)O)ccc5c34)c2Cl)c(=O)c2cccc(F)c21` [Example 45, 3-Chloro-4-(R)-(2-chloro-3-(8-fluoro-1-methyl-2,4-dioxo-1,2-dihydroquinazolin-3(4H)-yl)phenyl)-7-(2-hydroxypropan-2-yl)-9H-carbazole-1-carboxamide], the IC50 amounted to 68 nM.
Same read-out and setting: to `Cc1c(-c2c(F)cc(C(N)=O)c3[nH]c4cc(C(C)(C)O)ccc4c23)cccc1-n1c(=O)[nH]c2c(F)cc(F)cc2c1=O` [Example 50] belongs 120 nM.

Still in this assay, the particulars now being: Homo sapiens, B-cell, 18 h, anti-IgM + IL-4 stimulation, 18 h, read-out: CD69 IC50.
With `Cc1c(-c2ccc(C(N)=O)c3[nH]c4cc(C(C)(C)O)ccc4c23)cccc1-n1cnc2ccccc2c1=O` [Comparative Example 75, 7-(2-Hydroxypropan-2-yl)-4-(2-methyl-3-(4-oxoquinazolin-3(4H)-yl)phenyl)-9H-carbazole-1-carboxamide, reference compound], the IC50 was 650 nM.

Still in this assay, the particulars now being: Homo sapiens, B-cell, BCR-stimulated, read-out: CD69 IC50 values.
`Cc1c(-c2c(F)cc(C(N)=O)c3[nH]c4cc(C(C)(C)O)ccc4c23)cccc1-n1c(=O)[nH]c2c(Cl)cccc2c1=O` [Example 53]: the IC50 worked out at 110 nM.
